# Experiments:
# [1] = test system: Heliothis virescens larvae; assay: Systemic activity of seed applied furathiocarb, larvae caged on maize leaves; format: in vivo
# Description: This example includes the results of three test series using different maize cultivars F7 x F2, Centaurus and Arjuna. The basic experimental procedure is that used in example 20 therefore only differences are mentioned here.
# Seeds of the hybrid F7 x F2 are treated with 10 g/kg furathiocarb in either PVAc/PVAl or association polymer systems. Treatment techniques are described earlier. Seeds are sown in 4 soil types: 100% quartz sand, 98% quartz sand plus 2% peat, 95% quartz sand plus 5% peat and 90% quartz sand plus 10% peat. Soil moisture is maintained at 10% for the 100% and 98% sand mixtures and at 20% for the other two soil types. All percentages are based on dry weight.
# Insecticidal activity is tested by caging 5 first instar Heliothis virescens larvae on each leaf of the maize plants. The insects are caged on the leaves at 9 and 14 days after planting and are allowed to feed for 5 and 3 days respectively. The test is evaluated by counting surviving larvae and by visually assessing feeding damage. To achieve this consistently, the leaf is compared to standard diagrams and the percentage eaten is estimated as 0, 1, 2, 5, 10, 20 or 50% or the total area.
# Seeds of the hybrid Centaurus are treated with both 4 and 10 g/kg furathiocarb in either PVAc/PVAl or association polymer systems. Seeds are sown in two soil types either earth from Stein, Canton Aargau, Switzerland (exact description given earlier) or in a 98% sand 2% peat mixture. Moisture content is 20% of dry weight for the former and 10% for the latter. H. virescens is again used to test insecticidal activity. The larvae are caged on the leaves either 8 or 14 days after planting and are allowed to feed for 4 days.
# Seeds of the cultivar Arjuna are treated with 2.5 and 10 g/kg furathiocarb in either PVAc/PVAl or association polymer systems. Seeds are sown in the two soil types used in the tests of the hybrid Centaurus. H. virescens is again the test insect and the larvae are caged on individual leaves 10 and 14 days after planting; they are allowed to feed for 4 days. Only 10 g rates are tested at the second date.
# corn rootworms = assay: Field control of corn rootworms by insecticide/polymer combinations applied to the seed; format: in vivo, Diabrotica spp.; settings: maize G 4733, 0-6 scale, 63 days after planting
# [2] = cultivar Arjuna, 98% Sand, time 1 week, Association Polymer, dosage 2.5 g
# [3] = cultivar Arjuna, 98% Sand, time 1 week, Association Polymer, dosage 10 g
# [4] = cultivar Arjuna, 98% Sand, time 1 week, PVAc/PVAl, dosage 2.5 g
# [5] = cultivar Arjuna, 98% Sand, time 1 week, PVAc/PVAl, dosage 10 g
# [6] = cultivar Arjuna, 98% Sand, time 2 weeks, Association Polymer, dosage 10 g
# [7] = cultivar Arjuna, 98% Sand, time 2 weeks, PVAc/PVAl, dosage 10 g
# [8] = cultivar Arjuna, Stein Earth, time 1 week, Association Polymer, dosage 2.5 g
# [9] = cultivar Arjuna, Stein Earth, time 1 week, Association Polymer, dosage 10 g
# [10] = cultivar Arjuna, Stein Earth, time 1 week, PVAc/PVAl, dosage 2.5 g
# [11] = cultivar Arjuna, Stein Earth, time 1 week, PVAc/PVAl, dosage 10 g
# [12] = cultivar Arjuna, Stein Earth, time 2 weeks, Association Polymer, dosage 10 g
# [13] = cultivar Arjuna, Stein Earth, time 2 weeks, PVAc/PVAl, dosage 10 g
# [14] = hybrid Centaurus, 98% Sand, time 1 week, Association Polymer, dosage 4 g
# [15] = hybrid Centaurus, 98% Sand, time 1 week, Association Polymer, dosage 10 g
# [16] = hybrid Centaurus, 98% Sand, time 1 week, PVAc/PVAl, dosage 4 g
# [17] = hybrid Centaurus, 98% Sand, time 1 week, PVAc/PVAl, dosage 10 g
# [18] = hybrid Centaurus, 98% Sand, time 2 weeks, Association Polymer, dosage 4 g
# [19] = hybrid Centaurus, 98% Sand, time 2 weeks, Association Polymer, dosage 10 g
# [20] = hybrid Centaurus, 98% Sand, time 2 weeks, PVAc/PVAl, dosage 4 g
# [21] = hybrid Centaurus, 98% Sand, time 2 weeks, PVAc/PVAl, dosage 10 g
# [22] = hybrid Centaurus, Stein Earth, time 1 week, Association Polymer, dosage 4 g
# [23] = hybrid Centaurus, Stein Earth, time 1 week, Association Polymer, dosage 10 g
# [24] = hybrid Centaurus, Stein Earth, time 1 week, PVAc/PVAl, dosage 4 g
# [25] = hybrid Centaurus, Stein Earth, time 1 week, PVAc/PVAl, dosage 10 g
# [26] = hybrid Centaurus, Stein Earth, time 2 weeks, Association Polymer, dosage 4 g
# [27] = hybrid Centaurus, Stein Earth, time 2 weeks, Association Polymer, dosage 10 g
# [28] = hybrid Centaurus, Stein Earth, time 2 weeks, PVAc/PVAl, dosage 4 g
# [29] = hybrid Centaurus, Stein Earth, time 2 weeks, PVAc/PVAl, dosage 10 g
# [30] = hybrid F7 x F2, 10 g/kg, 90% Sand, time 1 week, Association Polymer
# [31] = hybrid F7 x F2, 10 g/kg, 90% Sand, time 1 week, PVAc/PVAl
# [32] = hybrid F7 x F2, 10 g/kg, 90% Sand, time 2 weeks, Association Polymer
# [33] = hybrid F7 x F2, 10 g/kg, 90% Sand, time 2 weeks, PVAc/PVAl
# [34] = hybrid F7 x F2, 10 g/kg, 95% Sand, time 1 week, Association Polymer
# [35] = hybrid F7 x F2, 10 g/kg, 95% Sand, time 1 week, PVAc/PVAl
# [36] = hybrid F7 x F2, 10 g/kg, 95% Sand, time 2 weeks, Association Polymer
# [37] = hybrid F7 x F2, 10 g/kg, 95% Sand, time 2 weeks, PVAc/PVAl
# [38] = hybrid F7 x F2, 10 g/kg, 98% Sand, time 1 week, Association Polymer
# [39] = hybrid F7 x F2, 10 g/kg, 98% Sand, time 1 week, PVAc/PVAl
# [40] = hybrid F7 x F2, 10 g/kg, 98% Sand, time 2 weeks, Association Polymer
# [41] = hybrid F7 x F2, 10 g/kg, 98% Sand, time 2 weeks, PVAc/PVAl
# [42] = hybrid F7 x F2, 10 g/kg, 100% Sand, time 1 week, Association Polymer
# [43] = hybrid F7 x F2, 10 g/kg, 100% Sand, time 1 week, PVAc/PVAl
# [44] = hybrid F7 x F2, 10 g/kg, 100% Sand, time 2 weeks, Association Polymer
# [45] = hybrid F7 x F2, 10 g/kg, 100% Sand, time 2 weeks, PVAc/PVAl
smiles,measurement,setting,value
CCCCOC(=O)N(C)SN(C)C(=O)Oc1cccc2c1OC(C)(C)C2 [furathiocarb],Percent survival of H. virescens larvae,[1]; [2],4%
same,Scores of damage caused by H. virescens larvae,[1]; [2],2.1
same,Percent survival of H. virescens larvae,[1]; [3],6%
same,Scores of damage caused by H. virescens larvae,[1]; [3],2.5
same,Percent survival of H. virescens larvae,[1]; [4],50%
same,Scores of damage caused by H. virescens larvae,[1]; [4],4.9
same,Percent survival of H. virescens larvae,[1]; [5],28%
same,Scores of damage caused by H. virescens larvae,[1]; [5],3.4
same,Percent survival of H. virescens larvae,[1]; [6],8%
same,Scores of damage caused by H. virescens larvae,[1]; [6],2.7
same,Percent survival of H. virescens larvae,[1]; [7],37%
same,Scores of damage caused by H. virescens larvae,[1]; [7],4.7
same,Percent survival of H. virescens larvae,[1]; [8],30%
same,Scores of damage caused by H. virescens larvae,[1]; [8],3.3
same,Percent survival of H. virescens larvae,[1]; [9],2%
same,Scores of damage caused by H. virescens larvae,[1]; [9],1.8
same,Percent survival of H. virescens larvae,[1]; [10],22%
same,Scores of damage caused by H. virescens larvae,[1]; [10],3.3
same,Percent survival of H. virescens larvae,[1]; [11],8%
same,Scores of damage caused by H. virescens larvae,[1]; [11],2.1
same,Percent survival of H. virescens larvae,[1]; [12],9%
same,Scores of damage caused by H. virescens larvae,[1]; [12],2.7
same,Percent survival of H. virescens larvae,[1]; [13],21%
same,Scores of damage caused by H. virescens larvae,[1]; [13],3.5
same,Percent survival of H. virescens larvae,[1]; [14],2%
same,Scores of damage caused by H. virescens larvae,[1]; [14],1.5
same,Percent survival of H. virescens larvae,[1]; [15],0%
same,Scores of damage caused by H. virescens larvae,[1]; [15],1.3
same,Percent survival of H. virescens larvae,[1]; [16],8%
same,Scores of damage caused by H. virescens larvae,[1]; [16],1.9
same,Percent survival of H. virescens larvae,[1]; [17],12%
same,Scores of damage caused by H. virescens larvae,[1]; [17],2.0
same,Percent survival of H. virescens larvae,[1]; [18],31%
same,Scores of damage caused by H. virescens larvae,[1]; [18],4.1
same,Percent survival of H. virescens larvae,[1]; [19],13%
same,Scores of damage caused by H. virescens larvae,[1]; [19],2.8
same,Percent survival of H. virescens larvae,[1]; [20],46%
same,Scores of damage caused by H. virescens larvae,[1]; [20],5.5
same,Percent survival of H. virescens larvae,[1]; [21],51%
same,Scores of damage caused by H. virescens larvae,[1]; [21],5.8
same,Percent survival of H. virescens larvae,[1]; [22],7%
same,Scores of damage caused by H. virescens larvae,[1]; [22],1.9
same,Percent survival of H. virescens larvae,[1]; [23],10%
same,Scores of damage caused by H. virescens larvae,[1]; [23],2.0
same,Percent survival of H. virescens larvae,[1]; [24],25%
same,Scores of damage caused by H. virescens larvae,[1]; [24],2.8
same,Percent survival of H. virescens larvae,[1]; [25],10%
same,Scores of damage caused by H. virescens larvae,[1]; [25],2.0
same,Percent survival of H. virescens larvae,[1]; [26],49%
same,Scores of damage caused by H. virescens larvae,[1]; [26],4.4
same,Percent survival of H. virescens larvae,[1]; [27],22%
same,Scores of damage caused by H. virescens larvae,[1]; [27],3.0
same,Percent survival of H. virescens larvae,[1]; [28],32%
same,Scores of damage caused by H. virescens larvae,[1]; [28],3.9
same,Percent survival of H. virescens larvae,[1]; [29],27%
same,Scores of damage caused by H. virescens larvae,[1]; [29],3.4
same,Percent survival of H. virescens larvae,[1]; [30],34%
same,Scores of damage caused by H. virescens larvae,[1]; [30],4.9
same,Percent survival of H. virescens larvae,[1]; [31],48%
same,Scores of damage caused by H. virescens larvae,[1]; [31],6.0
same,Percent survival of H. virescens larvae,[1]; [32],42%
same,Scores of damage caused by H. virescens larvae,[1]; [32],4.2
same,Percent survival of H. virescens larvae,[1]; [33],61%
same,Scores of damage caused by H. virescens larvae,[1]; [33],4.9
same,Percent survival of H. virescens larvae,[1]; [34],16%
same,Scores of damage caused by H. virescens larvae,[1]; [34],3.2
same,Percent survival of H. virescens larvae,[1]; [35],48%
same,Scores of damage caused by H. virescens larvae,[1]; [35],6.4
same,Percent survival of H. virescens larvae,[1]; [36],50%
same,Scores of damage caused by H. virescens larvae,[1]; [36],4.4
same,Percent survival of H. virescens larvae,[1]; [37],64%
same,Scores of damage caused by H. virescens larvae,[1]; [37],4.8
same,Percent survival of H. virescens larvae,[1]; [38],16%
same,Scores of damage caused by H. virescens larvae,[1]; [38],4.2
same,Percent survival of H. virescens larvae,[1]; [39],36%
same,Scores of damage caused by H. virescens larvae,[1]; [39],6.5
same,Percent survival of H. virescens larvae,[1]; [40],37%
same,Scores of damage caused by H. virescens larvae,[1]; [40],3.7
same,Percent survival of H. virescens larvae,[1]; [41],75%
same,Scores of damage caused by H. virescens larvae,[1]; [41],5.2
same,Percent survival of H. virescens larvae,[1]; [42],18%
same,Scores of damage caused by H. virescens larvae,[1]; [42],3.5
same,Percent survival of H. virescens larvae,[1]; [43],40%
same,Scores of damage caused by H. virescens larvae,[1]; [43],5.1
same,Percent survival of H. virescens larvae,[1]; [44],45%
same,Scores of damage caused by H. virescens larvae,[1]; [44],4.0
same,Percent survival of H. virescens larvae,[1]; [45],42%
same,Scores of damage caused by H. virescens larvae,[1]; [45],3.6
same,Ratings for corn rootworm damage,"corn rootworms; Granule, 0.1 g m⁻¹",3.2
same,Ratings for corn rootworm damage,"corn rootworms; seed treatment Association Polymer, 10 g/kg",4.5
same,Ratings for corn rootworm damage,"corn rootworms; seed treatment PVAc/PVAl, 10 g/kg",4.1
same,Ratings for corn rootworm damage,"corn rootworms; seed treatment PVAc/PVAl, 30 g/kg",4.8

# From EP0302824A2 (priority 1987, dated 1989)
